In patent US9260467B2, “Sialic acid dimers” (priority 2011, dated 2016):

target: T1, Siglec-2 (CD22) (Homo sapiens, UniProt P20273); experiment: new affinity assay: displacement of biotinylated compound 155 from sialidase-treated Daudi cells, FACS with streptavidin-PE; format: binding; design: endogenous in cells; host or cells: Daudi (human B-cell lymphoma line); conditions: Table II; rIP values set relative to compound 38; Daudi cells, displacement of compound 155
T1 sequence (P20273 20-847): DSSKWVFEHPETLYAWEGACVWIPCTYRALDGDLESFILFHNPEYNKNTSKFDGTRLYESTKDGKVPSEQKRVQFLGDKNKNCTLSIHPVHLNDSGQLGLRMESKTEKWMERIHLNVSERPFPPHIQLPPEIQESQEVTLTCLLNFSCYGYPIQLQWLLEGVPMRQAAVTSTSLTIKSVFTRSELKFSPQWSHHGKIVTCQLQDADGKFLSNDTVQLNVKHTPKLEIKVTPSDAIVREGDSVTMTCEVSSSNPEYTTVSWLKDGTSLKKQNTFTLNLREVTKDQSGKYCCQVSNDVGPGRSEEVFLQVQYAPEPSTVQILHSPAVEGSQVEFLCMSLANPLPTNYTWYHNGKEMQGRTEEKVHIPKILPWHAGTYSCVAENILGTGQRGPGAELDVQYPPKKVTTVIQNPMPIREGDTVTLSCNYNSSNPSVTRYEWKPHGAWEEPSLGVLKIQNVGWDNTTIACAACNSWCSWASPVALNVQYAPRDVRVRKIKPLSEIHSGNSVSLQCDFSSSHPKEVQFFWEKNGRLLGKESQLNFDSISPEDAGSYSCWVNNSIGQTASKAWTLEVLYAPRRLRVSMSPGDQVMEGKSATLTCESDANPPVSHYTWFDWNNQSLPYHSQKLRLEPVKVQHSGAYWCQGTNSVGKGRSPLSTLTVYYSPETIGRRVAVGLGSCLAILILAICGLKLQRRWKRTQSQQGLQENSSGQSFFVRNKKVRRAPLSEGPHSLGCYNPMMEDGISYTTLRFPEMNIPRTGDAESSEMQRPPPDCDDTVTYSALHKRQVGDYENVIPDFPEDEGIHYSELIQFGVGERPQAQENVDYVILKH
Procedure: To determine the affinity of the compound of the formula (I), approximately 5×10^6 to 2×10^8 cells of the human B-cell lymphoma line “Daudi” were incubated with sialidase (A. ureafaciens) at 37° C. for 1 h (final concentration 0.1 unit/ml). […] Batches of 1-2×10^6 cells were transferred to sample vessels, and incubated on ice for 15 min with serial concentrations (10-fold dilutions, 1 mM to 1×10^−7 mM) of the substance under measurement (inhibitor). The reaction volume was 50 μl. Then 50 microliters of compound 155 (4-micromolar) were added, and incubation took place for 20 min Washing with FACS buffer (PBS, 0.1 BSA, 0.01% sodium azide) was followed by incubation with streptavidin-PE in the dark for 15 min, followed by washing and measurement of the bound amount of […] via the streptavidin-PE in the FACS. For the determination of 0% displacement of the compound 155, cells without inhibitor were measured. For the determination of 100% displacement, cells were measured without compound 155 and without inhibitor. For each assay, four substances and one reference were measured. The IC50 values determined in each assay were subsequently converted into values of rIP (relative Inhibitory Potency). […]

**Q.** How did the rIP turn out when `CC(=O)N[C@H]1[C@H]([C@H](O)[C@H](O)CNC(=O)Cc2ccc(-c3ccccc3)cc2)O[C@@](OCCCSCCNC(=O)c2ccc(-c3ccc(C(=O)NCCSCCCO[C@]4(C(=O)[O-])C[C@H](O)[C@@H](NC(C)=O)[C@H]([C@H](O)[C@H](O)CNC(=O)Cc5ccc(-c6ccccc6)cc5)O4)cc3)cc2)(C(=O)[O-])C[C@@H]1O.[Na+].[Na+]` [Compound 128] was run?
**A.** 19

**Q.** For `CC(=O)N[C@H]1[C@H]([C@H](O)[C@H](O)CNC(=O)c2ccc(-c3ccccc3)cc2)O[C@@](OCCCSCCNC(=O)C2CCC(C(=O)NCCSCCCO[C@]3(C(=O)[O-])C[C@H](O)[C@@H](NC(C)=O)[C@H]([C@H](O)[C@H](O)CNC(=O)c4ccc(-c5ccccc5)cc4)O3)CC2)(C(=O)[O-])C[C@@H]1O.[Na+].[Na+]` (some centres unmarked) [Compound 31], which rIP is on record?
**A.** 643

**Q.** For `CC(=O)N[C@H]1[C@H]([C@H](O)[C@H](O)CNC(=O)c2ccc(C3CCCCC3)cc2)O[C@@](OCCCSCCNC(=O)CCCCC(=O)NCCSCCCO[C@]2(C(=O)[O-])C[C@H](O)[C@@H](NC(C)=O)[C@H]([C@H](O)[C@H](O)CNC(=O)c3ccc(C4CCCCC4)cc3)O2)(C(=O)[O-])C[C@@H]1O.[Na+].[Na+]` [Compound 58], which rIP is on record?
**A.** 24

**Q.** `CC(=O)N[C@H]1[C@H]([C@H](O)[C@H](O)CNC(=O)c2ccc(-c3ccccc3)cc2)O[C@@](OCCCSCCNC(=O)CCC(=O)NCCSCCCO[C@]2(C(=O)[O-])C[C@H](O)[C@@H](NC(C)=O)[C@H]([C@H](O)[C@H](O)CNC(=O)c3ccc(-c4ccccc4)cc3)O2)(C(=O)[O-])C[C@@H]1O.[Na+].[Na+]` [Compound 36] was tested. Which rIP did it give?
**A.** 23

**Q.** With `CC(=O)N[C@H]1[C@H]([C@H](O)[C@H](O)CNC(=O)c2ccc(-c3ccccc3)cc2)O[C@@](OCCCSCCNC(=O)CC(=O)NCCSCCCO[C@]2(C(=O)[O-])C[C@H](O)[C@@H](NC(C)=O)[C@H]([C@H](O)[C@H](O)CNC(=O)c3ccc(-c4ccccc4)cc3)O2)(C(=O)[O-])C[C@@H]1O.[Na+].[Na+]` [Compound 37] as the molecule, how does the rIP read?
**A.** 177

**Q.** `CC(=O)N[C@H]1[C@H]([C@H](O)[C@H](O)CNS(=O)(=O)c2ccc(-c3ccccc3)cc2)O[C@@](OCCCSCCNC(=O)c2ccc(C(=O)NCCSCCCO[C@]3(C(=O)[O-])C[C@H](O)[C@@H](NC(C)=O)[C@H]([C@H](O)[C@H](O)CNS(=O)(=O)c4ccc(-c5ccccc5)cc4)O3)cc2)(C(=O)[O-])C[C@@H]1O.[Na+].[Na+]` [Compound 84] was tested. Which rIP did it give?
**A.** 9

**Q.** With `CC(=O)N[C@H]1[C@H]([C@H](O)[C@H](O)CNC(=O)c2ccc(-c3ccccc3)cc2)O[C@@](NC(=O)CCCCCNC(=O)c2ccc(C(=O)NCCCCCC(=O)N[C@]3(C(=O)[O-])C[C@H](O)[C@@H](NC(C)=O)[C@H]([C@H](O)[C@H](O)CNC(=O)c4ccc(-c5ccccc5)cc4)O3)cc2)(C(=O)[O-])C[C@@H]1O.[Na+].[Na+]` [Compound 116] as the molecule, how does the rIP read?
**A.** <1

**Q.** `CC(=O)N[C@H]1[C@H]([C@H](O)[C@H](O)CNC(=O)c2ccc(-c3ccccc3)cc2)O[C@@](OCCC[S+]([O-])CCNC(=O)c2ccc(C(=O)NCC[S+]([O-])CCCO[C@]3(C(=O)[O-])C[C@H](O)[C@@H](NC(C)=O)[C@H]([C@H](O)[C@H](O)CNC(=O)c4ccc(-c5ccccc5)cc4)O3)cc2)(C(=O)[O-])C[C@@H]1O.[Na+].[Na+]` (some centres unmarked) [Compound 132] was tested. Which rIP did it give?
**A.** 212

**Q.** With `CC(=O)N[C@H]1[C@H]([C@H](O)[C@H](O)CNC(=O)c2ccc(-c3ccccc3)cc2)O[C@@](OCCCSCCNC(=O)CSSCC(=O)NCCSCCCO[C@]2(C(=O)[O-])C[C@H](O)[C@@H](NC(C)=O)[C@H]([C@H](O)[C@H](O)CNC(=O)c3ccc(-c4ccccc4)cc3)O2)(C(=O)[O-])C[C@@H]1O.[Na+].[Na+]` [Compound 13] as the molecule, how does the rIP read?
**A.** 251

**Q.** With `CC(=O)N[C@H]1[C@H]([C@H](O)[C@H](O)CNC(=O)c2ccc(-c3c4ccc(=O)cc-4oc4cc(O)ccc34)c(C(=O)[O-])c2)O[C@@](OCCCSCCNC(=O)c2ccc(-c3ccc(C(=O)NCCSCCCO[C@]4(C(=O)[O-])C[C@H](O)[C@@H](NC(C)=O)[C@H]([C@H](O)[C@H](O)CNC(=O)c5ccc(-c6c7ccc(=O)cc-7oc7cc(O)ccc67)c(C(=O)[O-])c5)O4)cc3)cc2)(C(=O)[O-])C[C@@H]1O.[Na+].[Na+].[Na+].[Na+]` [Compound 131] as the molecule, how does the rIP read?
**A.** 4

**Q.** For `CC(=O)N[C@H]1[C@H]([C@H](O)[C@H](O)CNC(=O)c2cc3ccccc3s2)O[C@@](OCCCSCCNC(=O)c2ccc(C(=O)NCCSCCCO[C@]3(C(=O)[O-])C[C@H](O)[C@@H](NC(C)=O)[C@H]([C@H](O)[C@H](O)CNC(=O)c4cc5ccccc5s4)O3)cc2)(C(=O)[O-])C[C@@H]1O.[Na+].[Na+]` [Compound 70], which rIP is on record?
**A.** 137

**Q.** Which rIP does the source give for `CC(=O)N[C@H]1[C@H]([C@H](O)[C@H](O)CNC(=O)c2ccc(-c3ccccc3)cc2)O[C@@](OCCCSCCNc2c(NCCSCCCO[C@]3(C(=O)[O-])C[C@H](O)[C@@H](NC(C)=O)[C@H]([C@H](O)[C@H](O)CNC(=O)c4ccc(-c5ccccc5)cc4)O3)c(=O)c2=O)(C(=O)[O-])C[C@@H]1O.[Na+].[Na+]` [Compound 51] here?
**A.** 299

**Q.** With `CC(=O)N[C@H]1[C@H]([C@H](O)[C@H](O)CNC(=O)c2ccc(-c3ccccc3)cc2)O[C@@](OCCCSCCNC(=O)Cc2ccc(CC(=O)NCCSCCCO[C@]3(C(=O)[O-])C[C@H](O)[C@@H](NC(C)=O)[C@H]([C@H](O)[C@H](O)CNC(=O)c4ccc(-c5ccccc5)cc4)O3)cc2)(C(=O)[O-])C[C@@H]1O.[Na+].[Na+]` [Compound 28] as the molecule, how does the rIP read?
**A.** 129

**Q.** How did the rIP turn out when `CC(=O)N[C@H]1[C@H]([C@H](O)[C@H](O)CNC(=O)c2ccc(-c3ccc([N+](=O)[O-])cc3[N+](=O)[O-])c([N+](=O)[O-])c2)O[C@@](OCCCSCCNC(=O)c2ccc(C(=O)NCCSCCCO[C@]3(C(=O)[O-])C[C@H](O)[C@@H](NC(C)=O)[C@H]([C@H](O)[C@H](O)CNC(=O)c4ccc(-c5ccc([N+](=O)[O-])cc5[N+](=O)[O-])c([N+](=O)[O-])c4)O3)cc2)(C(=O)[O-])C[C@@H]1O.[Na+].[Na+]` [Compound 69] was run?
**A.** 14

**Q.** `CC(=O)N[C@H]1[C@H]([C@H](O)[C@H](O)CNC(=O)c2ccc(-c3ccccc3)cc2)O[C@@](OCCCSCCNC(=O)C#CC(=O)NCCSCCCO[C@]2(C(=O)[O-])C[C@H](O)[C@@H](NC(C)=O)[C@H]([C@H](O)[C@H](O)CNC(=O)c3ccc(-c4ccccc4)cc3)O2)(C(=O)[O-])C[C@@H]1O.[Na+].[Na+]` [Compound 25] was tested. Which rIP did it give?
**A.** 4944

**Q.** With `CC(=O)Nc1ccc(C(=O)NC[C@@H](O)[C@@H](O)[C@@H]2O[C@@](OCCCSCCNC(=O)c3ccc(C(=O)NCCSCCCO[C@]4(C(=O)[O-])C[C@H](O)[C@@H](NC(C)=O)[C@H]([C@H](O)[C@H](O)CNC(=O)c5ccc(NC(C)=O)cc5)O4)cc3)(C(=O)[O-])C[C@H](O)[C@H]2NC(C)=O)cc1.[Na+].[Na+]` [Compound 73] as the molecule, how does the rIP read?
**A.** 13

**Q.** For `CC(=O)N[C@H]1[C@H]([C@H](O)[C@H](O)CNC(=O)c2ccc(C(F)(F)F)cc2)O[C@@](OCCCSCCNC(=O)c2ccc(C(=O)NCCSCCCO[C@]3(C(=O)[O-])C[C@H](O)[C@@H](NC(C)=O)[C@H]([C@H](O)[C@H](O)CNC(=O)c4ccc(C(F)(F)F)cc4)O3)cc2)(C(=O)[O-])C[C@@H]1O.[Na+].[Na+]` [Compound 71], which rIP is on record?
**A.** 32

**Q.** How did the rIP turn out when `CC(=O)N[C@H]1[C@H]([C@H](O)[C@H](O)CNC(=O)c2ccc(-c3ccccc3)cc2)O[C@@](OCCCSCCC(=O)NCCNC(=O)CCSCCCO[C@]2(C(=O)[O-])C[C@H](O)[C@@H](NC(C)=O)[C@H]([C@H](O)[C@H](O)CNC(=O)c3ccc(-c4ccccc4)cc3)O2)(C(=O)[O-])C[C@@H]1O.[Na+].[Na+]` [Compound 46] was run?
**A.** 290

**Q.** Which rIP does the source give for `CC(=O)N[C@H]1[C@H]([C@H](O)[C@H](O)CNC(=O)c2ccc(C3CCCCC3)cc2)O[C@@](OCCCSCCNC(=O)c2ccc(C(=O)NCCSCCCO[C@]3(C(=O)[O-])C[C@H](O)[C@@H](NC(C)=O)[C@H]([C@H](O)[C@H](O)CNC(=O)c4ccc(C5CCCCC5)cc4)O3)cc2)(C(=O)[O-])C[C@@H]1O.[Na+].[Na+]` [Compound 57] here?
**A.** 22

**Q.** Which rIP does the source give for `CC(=O)N[C@H]1[C@H]([C@H](O)[C@H](O)CNC(=O)c2ccc(-c3ccco3)cc2)O[C@@](OCCCSCCNC(=O)c2ccc(C(=O)NCCSCCCO[C@]3(C(=O)[O-])C[C@H](O)[C@@H](NC(C)=O)[C@H]([C@H](O)[C@H](O)CNC(=O)c4ccc(-c5ccco5)cc4)O3)cc2)(C(=O)[O-])C[C@@H]1O.[Na+].[Na+]` [Compound 82] here?
**A.** 752
